Experiments:
[1] = target: MAP kinase-activated protein kinase 3 (Homo sapiens) (UniProt Q16644); test: Inhibition of human MAPKAPK3 using KKLNRTLSVA as substrate at 1 uM in presence of 32P-ATP by Hotspot assay relative to control; values are per cent of control
[2] = target: Casein kinase II subunit alpha' (Homo sapiens) (UniProt P19784); test: Inhibition of human CK2a2 using RRRDDDSDDD as substrate at 1 uM in presence of 32P-ATP by Hotspot assay relative to control; values are per cent of control
Casein kinase II subunit alpha' (Homo sapiens), sequence (P19784 whole entry, looked up): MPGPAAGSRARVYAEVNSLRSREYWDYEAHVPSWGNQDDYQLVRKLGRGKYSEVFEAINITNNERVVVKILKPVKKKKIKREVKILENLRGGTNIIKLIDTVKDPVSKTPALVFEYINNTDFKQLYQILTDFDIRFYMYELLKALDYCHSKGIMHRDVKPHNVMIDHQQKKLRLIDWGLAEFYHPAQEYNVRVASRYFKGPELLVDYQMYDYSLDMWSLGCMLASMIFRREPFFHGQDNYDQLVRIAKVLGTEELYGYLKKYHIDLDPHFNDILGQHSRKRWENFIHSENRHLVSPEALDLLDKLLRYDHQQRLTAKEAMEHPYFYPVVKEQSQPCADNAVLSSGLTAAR

[3] = target: Calcium/calmodulin-dependent protein kinase type II subunit delta (Homo sapiens) (UniProt Q13557); test: Inhibition of human CAMK2d using KKLNRTLSFAEPG as substrate at 1 uM in presence of 32P-ATP by Hotspot assay relative to control; values are per cent of control
Calcium/calmodulin-dependent protein kinase type II subunit delta (Homo sapiens), sequence (Q13557 whole entry, canonical isoform): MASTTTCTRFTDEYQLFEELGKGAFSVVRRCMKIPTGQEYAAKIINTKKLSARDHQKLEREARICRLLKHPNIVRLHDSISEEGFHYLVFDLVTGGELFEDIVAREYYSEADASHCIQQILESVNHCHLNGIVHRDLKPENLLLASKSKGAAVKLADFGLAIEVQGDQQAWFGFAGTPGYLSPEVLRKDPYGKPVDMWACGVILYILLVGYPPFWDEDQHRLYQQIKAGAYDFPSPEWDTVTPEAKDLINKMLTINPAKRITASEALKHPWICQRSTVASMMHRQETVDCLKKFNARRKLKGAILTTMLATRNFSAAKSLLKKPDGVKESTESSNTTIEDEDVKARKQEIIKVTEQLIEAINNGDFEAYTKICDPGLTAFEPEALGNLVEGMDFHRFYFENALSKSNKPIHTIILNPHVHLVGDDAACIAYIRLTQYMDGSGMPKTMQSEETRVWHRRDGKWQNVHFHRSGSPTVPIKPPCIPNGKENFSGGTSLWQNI

[4] = target: Casein kinase I isoform epsilon (Homo sapiens) (UniProt P49674); test: Inhibition of human CK1epsilon using KRRRAL[pS]VASLPGL as substrate at 1 uM in presence of 32P-ATP by Hotspot assay relative to control; values are per cent of control
Casein kinase I isoform epsilon (Homo sapiens), sequence (P49674 whole entry, looked up, canonical isoform): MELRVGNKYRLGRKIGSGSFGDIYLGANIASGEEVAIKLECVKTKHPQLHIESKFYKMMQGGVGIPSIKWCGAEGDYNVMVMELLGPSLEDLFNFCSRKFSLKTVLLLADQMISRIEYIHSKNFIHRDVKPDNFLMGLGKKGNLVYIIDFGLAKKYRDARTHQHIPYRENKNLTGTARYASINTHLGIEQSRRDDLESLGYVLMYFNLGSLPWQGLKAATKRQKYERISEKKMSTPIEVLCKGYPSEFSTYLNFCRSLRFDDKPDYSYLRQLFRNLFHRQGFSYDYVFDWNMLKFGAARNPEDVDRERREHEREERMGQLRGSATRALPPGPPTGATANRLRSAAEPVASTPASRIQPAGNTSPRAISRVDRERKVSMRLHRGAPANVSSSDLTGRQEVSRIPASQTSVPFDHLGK

[5] = target: Calcium/calmodulin-dependent protein kinase type II subunit alpha (Homo sapiens) (UniProt Q9UQM7); test: Inhibition of human CAMK2a using KKALRRQETVDAL as substrate at 1 uM in presence of 32P-ATP by Hotspot assay relative to control; values are per cent of control
Calcium/calmodulin-dependent protein kinase type II subunit alpha (Homo sapiens), sequence (Q9UQM7 whole entry): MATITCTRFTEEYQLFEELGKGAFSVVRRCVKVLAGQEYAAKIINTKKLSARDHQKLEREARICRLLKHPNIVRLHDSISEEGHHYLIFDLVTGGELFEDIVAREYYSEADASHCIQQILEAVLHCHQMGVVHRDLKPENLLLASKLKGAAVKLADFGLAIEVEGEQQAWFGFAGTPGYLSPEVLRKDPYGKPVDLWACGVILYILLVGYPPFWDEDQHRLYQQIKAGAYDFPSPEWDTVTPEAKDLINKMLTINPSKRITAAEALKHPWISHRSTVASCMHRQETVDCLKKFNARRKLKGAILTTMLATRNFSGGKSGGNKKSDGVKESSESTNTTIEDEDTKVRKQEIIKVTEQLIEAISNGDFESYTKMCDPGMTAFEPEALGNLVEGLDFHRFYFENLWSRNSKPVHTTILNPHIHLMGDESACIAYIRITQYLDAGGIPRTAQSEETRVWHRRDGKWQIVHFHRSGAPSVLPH

[6] = target: CDK9/cyclin T1 (Homo sapiens) (UniProt O60563+P50750); test: Inhibition of human CDK9/cyclin T1 using KTFCGTPEYLAPEVRREPRILSEEEQEMFRDFDYIADWC as substrate at 1 uM in presence of 32P-ATP by Hotspot assay relative to control; values are per cent of control
[7] = target: Serine/threonine-protein kinase PLK1 (Homo sapiens) (UniProt P53350); test: Inhibition of human PLK1 using casein as substrate at 1 uM in presence of 32P-ATP by Hotspot assay relative to control; values are per cent of control
Serine/threonine-protein kinase PLK1 (Homo sapiens), sequence (P53350 whole entry): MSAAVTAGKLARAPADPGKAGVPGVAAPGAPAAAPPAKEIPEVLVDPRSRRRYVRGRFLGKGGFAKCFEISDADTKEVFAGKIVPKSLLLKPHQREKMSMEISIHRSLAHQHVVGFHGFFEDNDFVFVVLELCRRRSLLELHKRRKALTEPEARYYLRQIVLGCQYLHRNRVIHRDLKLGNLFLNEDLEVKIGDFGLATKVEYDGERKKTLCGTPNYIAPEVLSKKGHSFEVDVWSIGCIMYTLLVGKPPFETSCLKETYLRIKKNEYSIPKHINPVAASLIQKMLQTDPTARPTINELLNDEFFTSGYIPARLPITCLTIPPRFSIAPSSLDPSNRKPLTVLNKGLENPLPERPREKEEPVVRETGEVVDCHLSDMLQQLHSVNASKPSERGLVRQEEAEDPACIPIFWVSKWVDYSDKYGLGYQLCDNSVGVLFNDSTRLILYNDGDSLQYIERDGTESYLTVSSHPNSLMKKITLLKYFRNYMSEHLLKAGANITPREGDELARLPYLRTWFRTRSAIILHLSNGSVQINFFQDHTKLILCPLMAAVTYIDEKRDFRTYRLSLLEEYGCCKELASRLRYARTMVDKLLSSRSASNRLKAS

[8] = target: T1, Serine/threonine-protein kinase BRSK1 (Homo sapiens) (UniProt Q8TDC3); test: Inhibition of human BRSK1 using KKKVSRSGLYRSPSMPENLNRPR as substrate at 1 uM in presence of 32P-ATP by Hotspot assay relative to control; values are per cent of control
T1 sequence (whole entry): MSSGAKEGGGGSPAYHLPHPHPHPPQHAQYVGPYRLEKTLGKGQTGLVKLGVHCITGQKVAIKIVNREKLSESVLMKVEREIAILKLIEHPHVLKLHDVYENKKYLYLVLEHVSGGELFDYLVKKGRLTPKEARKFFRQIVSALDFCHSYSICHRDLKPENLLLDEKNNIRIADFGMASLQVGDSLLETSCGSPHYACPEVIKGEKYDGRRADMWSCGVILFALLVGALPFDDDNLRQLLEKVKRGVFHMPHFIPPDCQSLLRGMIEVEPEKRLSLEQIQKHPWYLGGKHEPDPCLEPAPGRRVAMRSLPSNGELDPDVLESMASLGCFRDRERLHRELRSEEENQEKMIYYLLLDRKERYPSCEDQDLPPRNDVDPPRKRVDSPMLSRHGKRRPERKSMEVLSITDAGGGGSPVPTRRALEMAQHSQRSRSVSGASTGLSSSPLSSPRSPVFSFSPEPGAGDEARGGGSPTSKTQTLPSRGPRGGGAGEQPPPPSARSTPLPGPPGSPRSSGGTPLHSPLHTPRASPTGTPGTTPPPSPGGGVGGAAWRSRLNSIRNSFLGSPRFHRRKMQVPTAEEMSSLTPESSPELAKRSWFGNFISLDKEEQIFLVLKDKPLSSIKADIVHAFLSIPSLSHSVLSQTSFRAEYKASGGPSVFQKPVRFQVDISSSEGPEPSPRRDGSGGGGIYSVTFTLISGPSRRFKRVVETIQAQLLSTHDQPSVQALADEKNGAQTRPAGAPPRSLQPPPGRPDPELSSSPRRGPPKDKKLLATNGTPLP

[9] = target: Mitogen-activated protein kinase kinase kinase kinase 4 (Homo sapiens) (UniProt O95819); test: Inhibition of human HGK/MAP4K4 using myelin basic protein as substrate at 1 uM in presence of 32P-ATP by Hotspot assay relative to control; values are per cent of control
Mitogen-activated protein kinase kinase kinase kinase 4 (Homo sapiens), sequence (O95819 2-1239 limits assumed): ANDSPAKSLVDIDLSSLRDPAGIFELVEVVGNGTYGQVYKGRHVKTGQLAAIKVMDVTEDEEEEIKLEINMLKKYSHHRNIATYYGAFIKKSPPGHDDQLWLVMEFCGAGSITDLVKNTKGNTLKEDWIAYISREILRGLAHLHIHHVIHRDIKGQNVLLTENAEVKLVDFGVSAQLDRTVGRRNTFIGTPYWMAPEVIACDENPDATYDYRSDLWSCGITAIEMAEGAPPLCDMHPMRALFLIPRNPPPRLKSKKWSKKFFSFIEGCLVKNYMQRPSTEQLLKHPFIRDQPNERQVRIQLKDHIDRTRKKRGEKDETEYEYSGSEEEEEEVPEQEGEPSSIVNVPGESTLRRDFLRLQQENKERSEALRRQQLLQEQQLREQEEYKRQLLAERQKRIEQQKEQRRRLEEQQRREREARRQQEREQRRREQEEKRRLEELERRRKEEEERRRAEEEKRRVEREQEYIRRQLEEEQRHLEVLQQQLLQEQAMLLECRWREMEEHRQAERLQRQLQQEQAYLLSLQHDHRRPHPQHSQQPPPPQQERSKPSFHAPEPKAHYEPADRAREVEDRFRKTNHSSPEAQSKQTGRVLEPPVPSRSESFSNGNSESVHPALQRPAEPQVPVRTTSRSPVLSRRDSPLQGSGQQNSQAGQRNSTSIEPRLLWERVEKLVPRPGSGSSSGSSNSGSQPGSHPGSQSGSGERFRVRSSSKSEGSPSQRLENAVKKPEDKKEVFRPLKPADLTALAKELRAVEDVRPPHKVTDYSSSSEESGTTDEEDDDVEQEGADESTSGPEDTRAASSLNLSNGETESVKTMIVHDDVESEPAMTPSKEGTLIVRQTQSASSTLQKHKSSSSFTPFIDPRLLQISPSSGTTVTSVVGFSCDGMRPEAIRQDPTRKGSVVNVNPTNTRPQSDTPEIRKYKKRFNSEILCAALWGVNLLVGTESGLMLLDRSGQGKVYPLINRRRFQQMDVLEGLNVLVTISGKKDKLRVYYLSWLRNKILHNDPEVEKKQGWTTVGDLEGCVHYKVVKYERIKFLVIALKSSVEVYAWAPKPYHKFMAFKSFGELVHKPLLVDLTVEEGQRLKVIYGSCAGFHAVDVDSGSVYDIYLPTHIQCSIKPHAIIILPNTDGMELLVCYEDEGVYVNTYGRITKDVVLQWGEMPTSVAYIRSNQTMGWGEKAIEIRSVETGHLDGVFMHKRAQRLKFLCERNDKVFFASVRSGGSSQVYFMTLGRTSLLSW

[10] = target: Tyrosine-protein kinase Fgr (Homo sapiens) (UniProt P09769); test: Inhibition of human FGR using poly[Glu:Tyr] (4:1) as substrate at 1 uM in presence of 32P-ATP by Hotspot assay relative to control; values are per cent of control
Tyrosine-protein kinase Fgr (Homo sapiens), sequence (P09769 2-529 limits assumed): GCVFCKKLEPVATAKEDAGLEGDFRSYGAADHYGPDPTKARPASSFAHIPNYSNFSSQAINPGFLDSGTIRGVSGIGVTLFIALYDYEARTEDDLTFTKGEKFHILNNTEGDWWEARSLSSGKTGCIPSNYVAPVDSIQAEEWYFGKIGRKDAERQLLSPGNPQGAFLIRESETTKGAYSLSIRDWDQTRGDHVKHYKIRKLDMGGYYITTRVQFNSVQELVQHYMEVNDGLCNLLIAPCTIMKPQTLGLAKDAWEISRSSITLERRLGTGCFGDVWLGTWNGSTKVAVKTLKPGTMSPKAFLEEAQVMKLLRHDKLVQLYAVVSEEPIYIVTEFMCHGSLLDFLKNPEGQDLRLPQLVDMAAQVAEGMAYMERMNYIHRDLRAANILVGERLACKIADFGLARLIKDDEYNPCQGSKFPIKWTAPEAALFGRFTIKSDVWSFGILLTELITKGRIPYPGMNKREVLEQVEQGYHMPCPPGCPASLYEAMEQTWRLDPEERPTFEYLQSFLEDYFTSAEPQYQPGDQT

[11] = target: T2, Serine/threonine-protein kinase BRSK2 (Homo sapiens) (UniProt Q8IWQ3); test: Inhibition of human BRSK2 using KKLNRTLSFAEPG as substrate at 1 uM in presence of 32P-ATP by Hotspot assay relative to control; values are per cent of control
T2 sequence (whole entry): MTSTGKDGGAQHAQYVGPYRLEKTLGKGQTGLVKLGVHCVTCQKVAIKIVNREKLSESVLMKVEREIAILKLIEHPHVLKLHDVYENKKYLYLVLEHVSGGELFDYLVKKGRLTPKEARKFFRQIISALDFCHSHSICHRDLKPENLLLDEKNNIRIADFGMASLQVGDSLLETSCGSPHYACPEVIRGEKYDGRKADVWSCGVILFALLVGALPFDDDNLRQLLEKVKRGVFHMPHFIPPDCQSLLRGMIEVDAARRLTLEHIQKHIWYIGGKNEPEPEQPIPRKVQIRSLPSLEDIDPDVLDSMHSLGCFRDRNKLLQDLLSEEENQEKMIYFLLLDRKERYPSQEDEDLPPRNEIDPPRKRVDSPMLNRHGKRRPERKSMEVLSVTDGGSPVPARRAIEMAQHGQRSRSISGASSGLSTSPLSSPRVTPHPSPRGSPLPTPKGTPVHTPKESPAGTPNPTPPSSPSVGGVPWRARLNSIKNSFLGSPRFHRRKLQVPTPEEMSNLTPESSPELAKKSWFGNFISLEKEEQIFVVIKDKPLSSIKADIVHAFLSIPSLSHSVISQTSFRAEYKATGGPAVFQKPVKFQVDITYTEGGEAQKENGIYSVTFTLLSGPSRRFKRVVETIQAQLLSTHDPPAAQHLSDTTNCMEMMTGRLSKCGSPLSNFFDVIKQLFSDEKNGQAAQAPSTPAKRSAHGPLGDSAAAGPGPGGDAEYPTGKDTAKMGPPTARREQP

MAP kinase-activated protein kinase 3 (Homo sapiens), sequence (Q16644 whole entry, looked up): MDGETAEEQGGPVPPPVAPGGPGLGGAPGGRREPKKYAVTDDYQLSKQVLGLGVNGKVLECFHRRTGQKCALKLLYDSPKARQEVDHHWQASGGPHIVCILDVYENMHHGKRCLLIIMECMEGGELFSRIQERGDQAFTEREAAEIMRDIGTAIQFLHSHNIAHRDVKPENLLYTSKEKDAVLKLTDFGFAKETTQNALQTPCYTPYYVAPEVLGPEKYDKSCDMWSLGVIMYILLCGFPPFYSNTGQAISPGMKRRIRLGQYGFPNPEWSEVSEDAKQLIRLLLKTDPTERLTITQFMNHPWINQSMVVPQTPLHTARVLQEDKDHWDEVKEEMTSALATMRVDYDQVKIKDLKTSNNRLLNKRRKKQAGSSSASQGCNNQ

Compound | residual activity [1] [%] | residual activity [2] [%] | residual activity [3] [%] | residual activity [4] [%] | residual activity [5] [%] | residual activity [6] [%] | residual activity [7] [%] | residual activity [8] [%] | residual activity [9] [%] | residual activity [10] [%] | residual activity [11] [%]
Cc1cc(-c2cnc(N)c3c(-c4ccc5scnc5c4)csc23)n(C)n1 | 90.7 | 88.9 | 104 | 73 | 104 | 96.2 | 98.6 | 101 | 21.2 | 22.2 | 89
CC(C)S(=O)(=O)c1ccc2nccc(Nc3ccc4scnc4c3)c2c1 | 98.9 | 97.1 | 98.1 | 106 | 100 | 96.6 | 95.4 | 101 | 83 | 28.5 | 99.4
CNC(=O)c1ccc2c(c1)ncn2-c1ccc(CC(=O)OC(C)(C)C)cc1 | 98 | 96.3 | 97.3 | 94.2 | 94.7 | 91.3 | 103 | 96.6 | 102 | 37.6 | 92

From ChEMBL document CHEMBL5649166, “RIP3 induces apoptosis independent of pronecrotic kinase activity” (Mol Cell, 2014)
